# In PubChem BioAssay (NCI):
#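 Assay format: 96-well plates, 48-hour exposure. Definition used: TGI = concentration required for complete inhibition of growth.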
# Assays:
# Assay in all cases: growth of human tumour cells (NCI), 48 h
# [1] = tested on: EKVX NSCLC
# [2] = tested on: A549 NSCLC
# [3] = tested on: SF-539 CNS
# [4] = tested on: UACC-257 melanoma
# [5] = tested on: A498 renal
# [6] = tested on: SN12C renal
# [7] = tested on: ACHN renal
# [8] = tested on: OVCAR-8 ovarian
# [9] = tested on: SK-MEL-2 melanoma
# [10] = tested on: CAKI-1 renal
# [11] = tested on: U251 CNS
# [12] = tested on: PC-3 prostate
# [13] = tested on: SNB-75 CNS
# [14] = tested on: NCI-H23 lung
# [15] = tested on: UACC-62 melanoma
# [16] = tested on: OVCAR-5 ovarian
# [17] = tested on: IGROV1 ovarian
# [18] = tested on: MCF7 breast
# [19] = tested on: OVCAR-3 ovarian
# [20] = tested on: KM12 colon
# [21] = tested on: MDA-MB-231 breast
# [22] = tested on: MOLT-4 leukemia
# [23] = tested on: SK-OV-3 ovarian
# [24] = tested on: SW-620 colon
# [25] = tested on: HCC-2998 colon
# [26] = tested on: MALME-3M melanoma
# [27] = tested on: SF-295 CNS
# [28] = tested on: SF-268 CNS
# [29] = tested on: SR leukemia
# [30] = tested on: HOP-62 NSCLC
# [31] = tested on: M14 melanoma
# [32] = tested on: NCI/ADR-RES ovarian
# [33] = tested on: NCI-H226 lung
# [34] = tested on: RPMI-8226 leukemia
# [35] = tested on: T-47D breast
# [36] = tested on: BT-549 breast
# [37] = tested on: CCRF-CEM leukemia
# [38] = tested on: TK-10 renal
# [39] = tested on: DU-145 prostate
# [40] = tested on: LOX IMVI melanoma
# [41] = tested on: OVCAR-4 ovarian
# [42] = tested on: UO-31 renal
# [43] = tested on: HCT-15 colon
# [44] = tested on: HT29 colon
# [45] = tested on: MDA-N
# [46] = tested on: NCI-H522 lung
# [47] = tested on: SK-MEL-5 melanoma
# [48] = tested on: 786-0 renal
# [49] = tested on: MDA-MB-435
# [50] = tested on: HCT-116 colon
# [51] = tested on: COLO 205 colon
# [52] = tested on: RXF 393 renal
# [53] = tested on: HS 578T breast
# [54] = tested on: K-562 leukemia
# [55] = tested on: SK-MEL-28 melanoma
# [56] = tested on: NCI-H460 lung
# [57] = tested on: HL-60(TB) leukemia
# [58] = tested on: HOP-92 NSCLC
# [59] = tested on: SNB-19 CNS
compound,measurement,setting,value
O=C(NNC(=O)c1csc(NC(=S)NC2CCCCC2)n1)c1ccccc1,TGI,[1],28.4 µM
same,TGI,[2],54.1 µM
same,TGI,[3],31.6 µM
same,TGI,[4],27.8 µM
same,TGI,[5],76.2 µM
same,TGI,[6],22.5 µM
same,TGI,[7],43.9 µM
same,TGI,[8],59.2 µM
same,TGI,[9],45 µM
same,TGI,[10],39.5 µM
same,TGI,[11],20.4 µM
same,TGI,[12],48.9 µM
same,TGI,[13],> 100 µM
same,TGI,[14],40.6 µM
same,TGI,[15],23.9 µM
same,TGI,[16],76.3 µM
same,TGI,[17],17.7 µM
same,TGI,[18],> 100 µM
same,TGI,[19],16.4 µM
same,TGI,[20],28.8 µM
same,TGI,[21],30.8 µM
same,TGI,[22],44.9 µM
same,TGI,[23],34.2 µM
same,TGI,[24],29.5 µM
same,TGI,[25],32.2 µM
same,TGI,[26],43.2 µM
same,TGI,[27],51.9 µM
same,TGI,[28],> 100 µM
same,TGI,[29],> 100 µM
same,TGI,[30],32.5 µM
same,TGI,[31],35.4 µM
same,TGI,[32],50.8 µM
same,TGI,[33],49.5 µM
same,TGI,[34],69.9 µM
same,TGI,[35],17.3 µM
same,TGI,[36],46.5 µM
same,TGI,[37],68.6 µM
same,TGI,[38],85.6 µM
same,TGI,[39],51.3 µM
same,TGI,[40],22 µM
same,TGI,[41],> 100 µM
same,TGI,[42],28.3 µM
same,TGI,[43],13 µM
same,TGI,[44],21.3 µM
same,TGI,[45],31.1 µM
same,TGI,[46],28.4 µM
same,TGI,[47],19.7 µM
same,TGI,[48],31 µM
same,TGI,[49],33.1 µM
same,TGI,[50],15.9 µM
same,TGI,[51],20.1 µM
O=[N+]([O-])c1cc(Cl)cnc1Br,TGI,[1],15.2 µM
same,TGI,[2],8.26 µM
same,TGI,[3],4.5 µM
same,TGI,[4],22.6 µM
same,TGI,[5],32 µM
same,TGI,[6],7.82 µM
same,TGI,[7],4.66 µM
same,TGI,[8],5.02 µM
same,TGI,[11],5.32 µM
same,TGI,[12],20.2 µM
same,TGI,[14],24.2 µM
same,TGI,[15],4.9 µM
same,TGI,[16],9.48 µM
same,TGI,[52],3.12 µM
same,TGI,[17],8.32 µM
same,TGI,[18],2.84 µM
same,TGI,[19],6.2 µM
same,TGI,[20],19 µM
same,TGI,[21],12.2 µM
same,TGI,[22],4.52 µM
same,TGI,[23],22.4 µM
same,TGI,[24],12.7 µM
same,TGI,[25],3.05 µM
same,TGI,[26],49.7 µM
same,TGI,[27],10.6 µM
same,TGI,[28],5.81 µM
same,TGI,[30],35.1 µM
same,TGI,[53],59.9 µM
same,TGI,[31],16.3 µM
same,TGI,[32],6.72 µM
same,TGI,[33],6.62 µM
same,TGI,[54],6.08 µM
same,TGI,[34],6.79 µM
same,TGI,[35],> 100 µM
same,TGI,[36],11.3 µM
same,TGI,[37],19.6 µM
same,TGI,[55],10.2 µM
same,TGI,[38],12.4 µM
same,TGI,[39],> 100 µM
same,TGI,[40],3.16 µM
same,TGI,[41],3.82 µM
same,TGI,[56],15.2 µM
same,TGI,[42],3.59 µM
same,TGI,[57],9.11 µM
same,TGI,[43],7.11 µM
same,TGI,[44],8.51 µM
same,TGI,[45],12.4 µM
same,TGI,[47],10.1 µM
same,TGI,[48],20.2 µM
same,TGI,[49],5.4 µM
same,TGI,[58],25.4 µM
same,TGI,[50],24 µM
same,TGI,[51],3.12 µM
same,TGI,[59],26.8 µM
